{"source": "patent US20190094246A1", "about": "“DETECTION OF NEURODEGENERATIVE DISEASES” (AMONETA DIAGNOSTICS SAS, priority 2016, published 2019)", "key": {"[1]": {"system": "red blood cells (RBCs) from human subjects", "test": "Dose-dependent staining of RBCs, flow cytometry (MEDFI)", "type": "cell-based", "conditions": "0.03, 0.1, 0.3, 1 and 3 μM; RBCs 200 000 cells/mL of 3 human subjects; channel FL1 (Ex. 1), FL3 (Ex. 9)", "method": "The blood from an animal or a human subject is sampled in specific 5 mL tube, such as lithium-heparin tube. The blood is manually mixed by inversion before use.\nRed blood cells (RBCs) are obtained from whole blood after centrifugation at 200 g for 10 minutes at room temperature. RBCs pellet down and segregate from white blood cells, platelets and plasma. 5 μL of RBCs are pipetted, diluted 1000 times in 5 mL of Flow cytometry buffer (FACS buffer: 150 mM of NaCl; 1 mM of D-Glucose; 5 mM of Na2HPO4; 0.5 mM CaCl2) and either numbered by manual counting on disposable Malassez-like counting cell (X100 Cellule Fast Read, Fisher Scientific, Ref #11762712) with a microscope or counted with Flow count Fluorospheres (Beckman, Ref 7547053) so as to obtain a cell concentration of stock solution to be used in the test. […]\nFrom these different concentration stocks, the same quantity (4) of compounds at desired concentration to be tested is added to erythrocytes in each FACS vial to obtain the same % of DMSO (0.5% of DMSO) at the end. […] In all experiments, a control is performed with the final amount of compound solvent (DMSO alone, without test compound), in order to obtain the auto-fluorescence of the RBCs.\nThese fluorescences are detected by the gating of erythrocytes in a log FSC/log SSC plot. […]"}, "[2]": {"system": "RBCs from transgenic APP/PS1 mice versus age-matched Wild-Type mice", "test": "RBC staining in Alzheimer animal model, transgenic versus wild type", "type": "cell-based", "from_the_text": "Transgenic mice used in this study carry two mutations associated with early onset AD: mutant amyloid precursor protein (K670N and M671L) and mutant human presenilin 1 (M146V). These transgenic mice develop AD-related phenotype consisting in beta-amyloid peptide overproduction and formation of amyloid plaques in their brain."}}, "data": [{"smiles": "COCCOCC#CB(C#CCOCCOC)n1c(C)cc(C)c1/C(=C1\\N=C(C)C=C1C)c1ccc(C(=O)NCCCn2cc(C3=C(c4cn(C)c5ccccc45)C(=O)NC3=O)c3ccccc32)cc1", "note": "[Ex. 9]", "values": [{"measurement": "staining of RBCs (index MEDFI)", "setting": "[1]", "value": "dose-dependent staining"}, {"measurement": "discrimination between transgenic and wild type mice by RBC staining", "setting": "[2]; 1 μM, 5 transgenic mice and 6 age-matched wild type mice", "value": "excellent accuracy"}, {"measurement": "discrimination between the transgenic mouse group and control mouse group by RBC staining", "setting": "[2]; concentration not given", "value": "good accuracy"}]}]}
